Data taken from PubChem BioAssay AID1963971 (Molecular Pharmacology Branch, DTP, NCI, 2024).
pIC50: −log10 of the molar value.

Test system: 953936-095-R-J2-PDC spheroids with HUVEC/MSC, viability
Experiment: Anticancer human tumor 953936-095-R-J2-PDC patient-derived cervical squamous cell carcinoma cell line growth inhibition [PI3K]
Conditions: for pIC50: curve of first compound; for viability, T/C: stronger effect = lower value
In short: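 Agents were dosed from a top concentration near clinical Cmax (otherwise 10 microM) in half-log decrements, alone or combined with PI3K inhibitors. The spheroids contain tumor cells plus endothelial (HUVEC) and MSC stroma; viability is measured.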

[1] = second compound 0.00316 µM, first compound 0.0316 µM
[2] = second compound 0.00316 µM, first compound 0.1 µM
[3] = second compound 0.01 µM, first compound 0.0316 µM
[4] = second compound 0.01 µM, first compound 0.1 µM
[5] = second compound 0.0316 µM, first compound 0.0316 µM
[6] = second compound 0.0316 µM, first compound 0.1 µM
[7] = second compound 0.1 µM, first compound 0.0316 µM
[8] = second compound 0.1 µM, first compound 0.1 µM
[9] = second compound 0.316 µM, first compound 0.0316 µM
[10] = second compound 0.316 µM, first compound 0.1 µM
[11] = second compound 1 µM, first compound 0.0316 µM
[12] = second compound 1 µM, first compound 0.1 µM
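Note: spheroids exposed to compounds for seven days before read-out.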

C[C@@H](NC(=O)c1ncnc(N)c1Cl)c1ncc(C(=O)Nc2cc(C(F)(F)F)c(Cl)cn2)s1 + COc1c(OCCCN2CCOCC2)ccc2c3n(c(=NC(=O)c4cnc(N)nc4)nc12)CCN3
pIC50 (second compound 0.00316 µM): < 5.00
pIC50 (second compound 0.01 µM): < 5.00
pIC50 (second compound 0.0316 µM): > 7.50
pIC50 (second compound 0.1 µM): > 7.50
pIC50 (second compound 0.316 µM): > 7.50
pIC50 (second compound 1 µM): > 7.50
viability, T/C [1]: 89.7%
viability, T/C [2]: 91.8%
viability, T/C (second compound 0.00316 µM, first compound 0.316 µM): 88.7%
viability, T/C (second compound 0.00316 µM, first compound 1 µM): 104%
viability, T/C (second compound 0.00316 µM, first compound 3.16 µM): 110%
viability, T/C (second compound 0.00316 µM, first compound 10 µM): 106%
viability, T/C [3]: 73.7%
viability, T/C [4]: 77.9%
viability, T/C (second compound 0.01 µM, first compound 0.316 µM): 84.7%
viability, T/C (second compound 0.01 µM, first compound 1 µM): 86.9%
viability, T/C (second compound 0.01 µM, first compound 3.16 µM): 85.5%
viability, T/C (second compound 0.01 µM, first compound 10 µM): 77.3%
viability, T/C [5]: 40.9%
viability, T/C [6]: 50%
viability, T/C (second compound 0.0316 µM, first compound 0.316 µM): 48.1%
viability, T/C (second compound 0.0316 µM, first compound 1 µM): 49.7%
viability, T/C (second compound 0.0316 µM, first compound 3.16 µM): 54.9%
viability, T/C (second compound 0.0316 µM, first compound 10 µM): 48.7%
viability, T/C [7]: 19.3%
viability, T/C [8]: 22%
viability, T/C (second compound 0.1 µM, first compound 0.316 µM): 22.8%
viability, T/C (second compound 0.1 µM, first compound 1 µM): 21.9%
viability, T/C (second compound 0.1 µM, first compound 3.16 µM): 23%
viability, T/C (second compound 0.1 µM, first compound 10 µM): 20.7%
viability, T/C [9]: 7.52%
viability, T/C [10]: 8.48%
viability, T/C (second compound 0.316 µM, first compound 0.316 µM): 7.48%
viability, T/C (second compound 0.316 µM, first compound 1 µM): 9.8%
viability, T/C (second compound 0.316 µM, first compound 3.16 µM): 10.3%
viability, T/C (second compound 0.316 µM, first compound 10 µM): 7.69%
viability, T/C [11]: 1.88%
viability, T/C [12]: 2.05%
viability, T/C (second compound 1 µM, first compound 0.316 µM): 2.83%
viability, T/C (second compound 1 µM, first compound 1 µM): 2.99%
viability, T/C (second compound 1 µM, first compound 3.16 µM): 3.46%
viability, T/C (second compound 1 µM, first compound 10 µM): 3.33%

Cn1ncnc1[C@H]1c2n[nH]c(=O)c3cc(F)cc(c23)N[C@@H]1c1ccc(F)cc1 + COc1c(OCCCN2CCOCC2)ccc2c3n(c(=NC(=O)c4cnc(N)nc4)nc12)CCN3
pIC50 (second compound 0.00316 µM): < 7.00
pIC50 (second compound 0.01 µM): < 7.00
pIC50 (second compound 0.0316 µM): > 9.50
pIC50 (second compound 0.1 µM): > 9.50
pIC50 (second compound 0.316 µM): > 9.50
pIC50 (second compound 1 µM): > 9.50
viability, T/C (second compound 0.00316 µM, first compound 0.000316 µM): 83%
viability, T/C (second compound 0.00316 µM, first compound 0.001 µM): 102%
viability, T/C (second compound 0.00316 µM, first compound 0.00316 µM): 93.9%
viability, T/C (second compound 0.00316 µM, first compound 0.01 µM): 85.2%
viability, T/C [1]: 81.6%
viability, T/C [2]: 78.5%
viability, T/C (second compound 0.01 µM, first compound 0.000316 µM): 71%
viability, T/C (second compound 0.01 µM, first compound 0.001 µM): 85.1%
viability, T/C (second compound 0.01 µM, first compound 0.00316 µM): 81.1%
viability, T/C (second compound 0.01 µM, first compound 0.01 µM): 72.1%
viability, T/C [3]: 67.3%
viability, T/C [4]: 68.2%
viability, T/C (second compound 0.0316 µM, first compound 0.000316 µM): 44.6%
viability, T/C (second compound 0.0316 µM, first compound 0.001 µM): 39.1%
viability, T/C (second compound 0.0316 µM, first compound 0.00316 µM): 41%
viability, T/C (second compound 0.0316 µM, first compound 0.01 µM): 43%
viability, T/C [5]: 39.3%
viability, T/C [6]: 35.8%
viability, T/C (second compound 0.1 µM, first compound 0.000316 µM): 19%
viability, T/C (second compound 0.1 µM, first compound 0.001 µM): 18.1%
viability, T/C (second compound 0.1 µM, first compound 0.00316 µM): 18.2%
viability, T/C (second compound 0.1 µM, first compound 0.01 µM): 18.9%
viability, T/C [7]: 19.9%
viability, T/C [8]: 17.4%
viability, T/C (second compound 0.316 µM, first compound 0.000316 µM): 6.63%
viability, T/C (second compound 0.316 µM, first compound 0.001 µM): 6.64%
viability, T/C (second compound 0.316 µM, first compound 0.00316 µM): 7.07%
viability, T/C (second compound 0.316 µM, first compound 0.01 µM): 7.8%
viability, T/C [9]: 6.66%
viability, T/C [10]: 5.37%
viability, T/C (second compound 1 µM, first compound 0.000316 µM): 1.68%
viability, T/C (second compound 1 µM, first compound 0.001 µM): 1.6%
viability, T/C (second compound 1 µM, first compound 0.00316 µM): 1.91%
viability, T/C (second compound 1 µM, first compound 0.01 µM): 1.67%
viability, T/C [11]: 1.93%
viability, T/C [12]: 1.28%
